Data published in ChEMBL document CHEMBL1201862, “PubChem BioAssay data set” (2004).
Active and inactive are the calls of the source.

What was measured:
Prothrombin = Prothrombin (Homo sapiens, UniProt P00734); assay: Thrombin 1536 HTS Dose Response Confirmation. [Related pubchem assays: 1046 (Thrombin 1536 HTS; hits were confirmed in this assay)]; assay type: functional
[1] = target: T1, Corticotropin-releasing factor receptor 2/Corticotropin-releasing factor-binding protein (Homo sapiens, UniProt P24387+Q13324); assay: activators of CRF receptor 2 with binding protein – uHTS hits, confirmation (AID 602473); assay type: functional; details: read-out: EC50_Mean
T1 sequence (Q13324 whole entry): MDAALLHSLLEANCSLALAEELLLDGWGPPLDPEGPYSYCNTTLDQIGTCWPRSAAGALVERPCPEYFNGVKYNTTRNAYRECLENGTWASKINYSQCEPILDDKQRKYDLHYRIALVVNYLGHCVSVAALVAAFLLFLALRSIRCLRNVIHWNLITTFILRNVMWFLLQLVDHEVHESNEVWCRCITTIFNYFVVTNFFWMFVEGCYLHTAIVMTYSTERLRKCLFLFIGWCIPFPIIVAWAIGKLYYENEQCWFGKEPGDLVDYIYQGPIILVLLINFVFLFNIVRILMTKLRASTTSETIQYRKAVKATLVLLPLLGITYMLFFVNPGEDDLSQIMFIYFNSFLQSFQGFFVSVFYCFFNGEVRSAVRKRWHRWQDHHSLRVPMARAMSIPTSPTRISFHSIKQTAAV
T1 sequence (P24387 whole entry): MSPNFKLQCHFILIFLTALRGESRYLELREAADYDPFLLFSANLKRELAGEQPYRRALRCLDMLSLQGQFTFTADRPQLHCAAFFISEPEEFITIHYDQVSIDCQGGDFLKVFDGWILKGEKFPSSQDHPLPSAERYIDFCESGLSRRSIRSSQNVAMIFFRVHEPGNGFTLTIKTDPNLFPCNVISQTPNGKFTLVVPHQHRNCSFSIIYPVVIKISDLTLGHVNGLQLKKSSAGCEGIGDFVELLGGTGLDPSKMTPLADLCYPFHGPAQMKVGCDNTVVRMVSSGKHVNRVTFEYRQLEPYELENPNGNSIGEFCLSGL

[2] = growth suppression of PTEN-null colon cells, dose response, cell-based, HCT116 PTEN knockout (AID 1047); assay type: functional;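 note: HCT116 colon tumor cells with PTEN knocked out; cells exposed to compound for 60 hours before readout; potency for loss of cell viability measured by luminescence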
Estrogen receptor = target: T2, Estrogen receptor (Homo sapiens, UniProt P03372);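 note: potency for inhibiting coactivator peptide recruitment to the receptor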
T2 sequence (P03372 whole entry): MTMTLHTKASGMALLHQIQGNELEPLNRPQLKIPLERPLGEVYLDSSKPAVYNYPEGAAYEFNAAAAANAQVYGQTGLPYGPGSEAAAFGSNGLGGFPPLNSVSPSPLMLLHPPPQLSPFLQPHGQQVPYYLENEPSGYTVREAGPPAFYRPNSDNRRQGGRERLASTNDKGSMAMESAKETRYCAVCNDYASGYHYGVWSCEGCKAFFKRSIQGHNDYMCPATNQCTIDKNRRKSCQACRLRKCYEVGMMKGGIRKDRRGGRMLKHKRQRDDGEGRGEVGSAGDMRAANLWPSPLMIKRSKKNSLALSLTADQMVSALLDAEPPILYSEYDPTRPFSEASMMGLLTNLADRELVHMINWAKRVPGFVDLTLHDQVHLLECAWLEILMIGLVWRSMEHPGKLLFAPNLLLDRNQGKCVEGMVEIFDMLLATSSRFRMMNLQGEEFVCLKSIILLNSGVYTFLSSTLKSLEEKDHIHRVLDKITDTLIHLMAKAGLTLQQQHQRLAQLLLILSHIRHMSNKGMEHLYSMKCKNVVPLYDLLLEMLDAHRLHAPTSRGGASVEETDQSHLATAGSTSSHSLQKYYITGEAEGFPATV

[3] = growth suppression of beta-catenin-knockout colon cells, dose response, cell-based, HCT116, human colon tumor (AID 1045); assay type: functional;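 note: HCT116 colon tumor cells with beta catenin knocked out; cells exposed to compound for 60 hours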
[4] = tested on: Streptococcus sp. 'group A'; assay: growth inhibition of control SK(-) GAS strain, dose response, counter-screen for streptokinase expression inhibitor project, luminescence, kanamycin, BacTiterGlo, confirmation (AID 1900); assay type: functional, organism-based
[5] = target: T3, Histone-lysine N-methyltransferase NSD2 (Homo sapiens, UniProt O96028); assay type: biochemical
T3 sequence (O96028 whole entry): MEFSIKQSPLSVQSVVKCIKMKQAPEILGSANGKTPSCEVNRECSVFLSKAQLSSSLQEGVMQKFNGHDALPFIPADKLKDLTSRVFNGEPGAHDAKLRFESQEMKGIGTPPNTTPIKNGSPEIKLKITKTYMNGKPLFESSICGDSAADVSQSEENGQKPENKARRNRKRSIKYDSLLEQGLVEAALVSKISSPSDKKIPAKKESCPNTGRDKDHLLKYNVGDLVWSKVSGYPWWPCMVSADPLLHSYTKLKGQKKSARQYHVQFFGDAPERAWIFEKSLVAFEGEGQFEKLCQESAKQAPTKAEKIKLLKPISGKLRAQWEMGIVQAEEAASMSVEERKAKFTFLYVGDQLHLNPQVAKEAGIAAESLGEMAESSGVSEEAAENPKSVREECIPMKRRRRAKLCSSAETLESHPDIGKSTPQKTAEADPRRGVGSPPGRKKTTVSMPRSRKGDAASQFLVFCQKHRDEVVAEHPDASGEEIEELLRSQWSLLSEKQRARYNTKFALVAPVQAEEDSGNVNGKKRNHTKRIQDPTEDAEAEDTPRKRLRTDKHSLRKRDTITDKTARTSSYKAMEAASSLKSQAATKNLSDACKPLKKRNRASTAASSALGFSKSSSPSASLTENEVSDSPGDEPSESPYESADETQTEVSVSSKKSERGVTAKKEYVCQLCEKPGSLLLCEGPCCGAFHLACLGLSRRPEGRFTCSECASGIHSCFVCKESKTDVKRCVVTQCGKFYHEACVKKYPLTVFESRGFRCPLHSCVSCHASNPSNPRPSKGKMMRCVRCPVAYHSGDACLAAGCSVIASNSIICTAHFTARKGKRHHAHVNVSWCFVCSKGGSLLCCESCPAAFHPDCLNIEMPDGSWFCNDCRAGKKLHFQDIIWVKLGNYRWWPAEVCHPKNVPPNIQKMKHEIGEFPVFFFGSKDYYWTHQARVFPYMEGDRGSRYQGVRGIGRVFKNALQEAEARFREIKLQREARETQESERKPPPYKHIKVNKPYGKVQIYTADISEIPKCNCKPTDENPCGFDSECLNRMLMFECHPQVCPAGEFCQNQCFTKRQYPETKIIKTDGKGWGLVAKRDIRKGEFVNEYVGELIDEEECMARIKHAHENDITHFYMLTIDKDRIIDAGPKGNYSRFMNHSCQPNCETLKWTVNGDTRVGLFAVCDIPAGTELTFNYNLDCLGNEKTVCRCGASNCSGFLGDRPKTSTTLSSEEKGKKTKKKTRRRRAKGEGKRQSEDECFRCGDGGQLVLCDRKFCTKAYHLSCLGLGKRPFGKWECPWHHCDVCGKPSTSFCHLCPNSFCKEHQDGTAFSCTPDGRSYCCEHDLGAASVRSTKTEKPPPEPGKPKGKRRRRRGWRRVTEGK

Streptococcus = assay: Group A Streptococcus viability loss, dose response, counter-screen for streptokinase expression inhibitor project, luminescence, BacTiterGlo (AID 1915); assay type: functional, organism-based;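 note: potency for reduction of bacterial viability or growth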
Streptokinase A = target: T4, Streptokinase A (Streptococcus pyogenes serotype M1, UniProt P10520); assay: S. pyogenes streptokinase expression inhibitors, potency, dose response, plasminogen activation absorbance, OD405 (AID 1914); assay type: functional, Streptococcus pyogenes M1 GAS;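 note: secreted streptokinase activity via plasminogen activation per viability signal from cell pellet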
T4 sequence (P10520 whole entry): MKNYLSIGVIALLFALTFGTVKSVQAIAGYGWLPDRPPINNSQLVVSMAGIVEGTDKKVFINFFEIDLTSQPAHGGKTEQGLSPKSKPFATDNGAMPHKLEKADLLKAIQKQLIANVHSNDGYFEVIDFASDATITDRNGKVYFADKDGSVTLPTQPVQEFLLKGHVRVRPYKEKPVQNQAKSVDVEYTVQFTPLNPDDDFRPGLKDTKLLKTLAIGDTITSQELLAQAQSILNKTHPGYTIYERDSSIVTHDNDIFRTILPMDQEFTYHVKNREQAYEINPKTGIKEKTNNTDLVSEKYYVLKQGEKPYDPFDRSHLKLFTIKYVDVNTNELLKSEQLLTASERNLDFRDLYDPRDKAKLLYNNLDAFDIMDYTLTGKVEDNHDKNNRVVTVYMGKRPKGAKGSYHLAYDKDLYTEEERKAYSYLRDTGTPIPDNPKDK

[6] = cytotoxicity toward NIH3T3 fibroblasts, dose response, counter-screen, cell-based, ATP luminescence, mouse fibroblasts (AID 2010); assay type: functional;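 note: cells exposed to compound for about 90 hours before reading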
[7] = target: T5, DNA repair protein RAD52 homolog (Homo sapiens, UniProt P43351); assay type: functional, biochemical
T5 sequence (P43351 whole entry): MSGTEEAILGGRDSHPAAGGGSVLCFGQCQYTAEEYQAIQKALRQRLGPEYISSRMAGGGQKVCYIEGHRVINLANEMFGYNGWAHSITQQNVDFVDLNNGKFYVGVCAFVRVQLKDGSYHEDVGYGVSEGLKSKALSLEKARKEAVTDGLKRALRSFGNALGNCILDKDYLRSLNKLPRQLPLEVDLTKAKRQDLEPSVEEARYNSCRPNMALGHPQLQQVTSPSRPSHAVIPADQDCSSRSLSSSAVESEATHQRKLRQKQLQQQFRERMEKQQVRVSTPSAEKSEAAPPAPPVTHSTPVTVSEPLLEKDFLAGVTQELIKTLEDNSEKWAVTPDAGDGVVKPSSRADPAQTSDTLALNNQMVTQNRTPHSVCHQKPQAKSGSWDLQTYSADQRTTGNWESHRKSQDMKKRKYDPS

[8] = inhibitors of intracellular T. cruzi replication, confirmation, NIH3T3 host cells, beta-gal luminescence (AID 2044); assay type: functional, cell-based;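 note: intracellular parasites grown in NIH/3T3 mouse fibroblasts as host cells; luminescent beta-galactosidase reporter signal from transgenic T. cruzi replicating inside host cells; inhibitors lower the luminescence signal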

COCCNC(=O)Cn1nc(C(F)(F)F)cc1C
IC50 (Prothrombin): > 50 µM (not active)

Cn1c(CN2CCCCC2)nc2cc(NS(=O)(=O)c3ccc(Cl)cc3)ccc21
EC50 [1]: > 53 µM (inactive)
IC50 (Prothrombin): 1.06 µM (active)

Cc1ccc2nc(O)c(-c3nc4ccccn4c3NCc3ccco3)cc2c1
EC50 [2]: 18.7 µM (active)
IC50 (Estrogen receptor): 25.7 µM (active)
EC50 [3]: 28.4 µM (active)

CCOC(=O)C1=C(C)N=c2s/c(=C\c3ccc(O)c([N+](=O)[O-])c3)c(=O)n2C1c1ccccc1OC (stereo unspecified)
EC50 [4]: 7.08 µM (active)
AC50 [5]: > 20 µM (inactive)
EC50 (Streptococcus): 31.3 µM (active)
EC50 (Streptokinase A): 20.4 µM (active)

Cc1cc(C)c2nc(N(CCCN(C)C)C(=O)c3ccc4c(c3)CCCC4)sc2c1
EC50 [6]: 4.48 µM (active)
AC50 [7]: 13.4 µM (active)
EC50 [8]: 0.727 µM (active)

COc1cc(/C=C2\SC(=O)N(CCN)C2=O)ccc1OS(=O)(=O)c1cc(C)ccc1C
AC50 [7]: 5.08 µM (active)

Cn1c(=O)c2cc(NC(=O)c3ccccc3Cl)c(=O)oc2n(C)c1=O
IC50 (Prothrombin): 0.321 µM (active)

O=C(O)c1ccc(/C=N/NC(=O)c2ccc(F)cc2)cc1
IC50 (Prothrombin): > 50 µM (not active)
